Data from patent publication US20040067507A1, “Liver inflammation predictive genes” (priority 2002, published 2004).
Where two headings read alike, the source gives them in different places.

Test system: Sprague Dawley rats Crl:CD
Type: in vivo, rat
Text: In addition to the database described and utilized herein, other toxicology gene expression databases may be generated, and used to identify additional liver toxicity biomarkers, which may also be employed in the practice of the liver inflammation prediction methods of the invention. […] An example of compounds, dose levels, liver toxicity classifications and histopathology scores used in the Examples which follow are provided in Table 1. The compounds and dose levels are abbreviated in the Abbreviation Column. The Inflammation Score relates the histopathology liver inflammation, a score of “2” or higher indicates histopathology of increasing severity.
Identification of Correlating Genes: For the purpose of identifying candidate predictive genes, the database preferably includes histopathology scores for each animal which has been exposed to one or more agent(s). […] The scores are numerical scores that reflect the occurrence and severity of histopathological changes. These scores can be adjusted to have similar range to gene expression changes. […] Because the scores are numerical, they are suitable for use with a variety of statistical correlation and similarity measures.
Sprague Dawley rats Crl:CD from Charles River, Raleigh, N.C. were divided into treated rats that receive a specific concentration of the compound (see Table 1) and the control rats that only received the vehicle in which the compound is mixed (e.g., saline).
At specified timepoints (6 h, 24 h and 72 h) after administration (intraperitoneal route) of the compound, a set number of rats (usually 3 control and 3 treated) were euthanized and tissues collected. Each rat was heavily sedated with an overdose of CO2 by inhalation and a maximum amount of blood drawn. Exsanguination of the rat by this drawing of blood kills the rat. The method of collecting the tissues is very important and ensures preserving the quality of the mRNA in the tissues. The body of the rat was then opened up and prosectors rapidly removed the tissues (including liver) and immediately placed them into liquid nitrogen. […] The organs/tissues were then packaged into well-labeled plastic freezer quality bags and stored at −80 degrees until needed for isolation of the mRNA from a portion of the organ/tissue sample.
Correlation with Histopathology Scores: Histopathology scores for each animal (assigned on a compound-dose basis as indicated in Table 1) were entered with gene expression data by using the GeneSpring™ ‘Drawn Gene’ function. Correlations between inflammation histopathology scores and gene expression were conducted with the distance measures listed below: […]

[1] = 20 mg/kg i.p., 72 h, 1=no histopathology, 2 or higher=increasing severity
[2] = 75 mg/kg i.p., 72 h, 1=no histopathology, 2 or higher=increasing severity
[3] = 15 mgkg i.p., 72 h, 1=no histopathology, 2 or higher=increasing severity
[4] = 60 mgkg i.p., 72 h, 1=no histopathology, 2 or higher=increasing severity
[5] = 13 mg/kg i.p., 72 h, 1=no histopathology, 2 or higher=increasing severity
[6] = 50 mg/kg i.p., 72 h, 1=no histopathology, 2 or higher=increasing severity
[7] = Sprague Dawley Crl:CD, rat, in vivo
[8] = 5 mg/kg i.p., 72 h, 1=no histopathology, 2 or higher=increasing severity
[9] = Sprague Dawley Crl:CD, rat, in vivo, ip
[10] = 30 mg/kg i.p., 72 h, 1=no histopathology, 2 or higher=increasing severity
[11] = 0.2 ml/kg i.p., 72 h, 1=no histopathology, 2 or higher=increasing severity
[12] = 0.8 ml/kg i.p., 72 h, 1=no histopathology, 2 or higher=increasing severity
[13] = 14 mg/kg i.p., 72 h, 1=no histopathology, 2 or higher=increasing severity
[14] = 1 mg/kg i.p., 72 h, 1=no histopathology, 2 or higher=increasing severity
[15] = 2 mg/kg i.p., 72 h, 1=no histopathology, 2 or higher=increasing severity
[16] = 4 mg/kg i.p., 72 h, 1=no histopathology, 2 or higher=increasing severity
[17] = 0.25 ml/kg i.p., 72 h, 1=no histopathology, 2 or higher=increasing severity
[18] = 1 ml/kg i.p., 72 h, 1=no histopathology, 2 or higher=increasing severity
[19] = 16 mg/kg i.p., 72 h, 1=no histopathology, 2 or higher=increasing severity
[20] = 8 mg/kg i.p., 72 h, 1=no histopathology, 2 or higher=increasing severity
[21] = 2.5 mg/kg i.p., 72 h, 1=no histopathology, 2 or higher=increasing severity
[22] = 10 mg/kg i.p., 72 h, 1=no histopathology, 2 or higher=increasing severity
[23] = 250 mg/kg i.p., 72 h, 1=no histopathology, 2 or higher=increasing severity
[24] = 0.5 mg/kg i.p., 72 h, 1=no histopathology, 2 or higher=increasing severity
[25] = 12 mg/kg i.p., 72 h, 1=no histopathology, 2 or higher=increasing severity

SMILES: CN(N=O)C(=O)N[C@H]1C(O)O[C@H](CO)[C@@H](O)[C@@H]1O (mixture of isomers) [streptozotocin]
- Liver Inflammation (20 mg/kg i.p., 72 h): no
- Liver Necrosis (20 mg/kg i.p., 72 h): no
- Inflamm. Score [1]: 1
- Necr. Score [1]: 1
- Liver Inflammation (75 mg/kg i.p., 72 h): no
- Liver Necrosis (75 mg/kg i.p., 72 h): no
- Inflamm. Score [2]: 1
- Necr. Score [2]: 1

SMILES: S=C=Nc1cccc2ccccc12 [1-naphthylisothiocyanate]
- Liver Necrosis (15 mgkg i.p., 72 h): no
- Inflamm. Score [3]: 1
- Necr. Score [3]: 1
- Liver Necrosis (60 mgkg i.p., 72 h): yes
- Inflamm. Score [4]: 2
- Necr. Score [4]: 2

SMILES: O=c1[nH]cc(F)c(=O)[nH]1 [5-fluorouracil]
- Liver Inflammation (13 mg/kg i.p., 72 h): no
- Liver Necrosis (13 mg/kg i.p., 72 h): no
- Inflamm. Score [5]: 1
- Necr. Score [5]: 1
- Liver Inflammation (50 mg/kg i.p., 72 h): no
- Liver Necrosis (50 mg/kg i.p., 72 h): no
- Inflamm. Score [6]: 1
- Necr. Score [6]: 1

SMILES: CC(=O)Nc1ccc(O)cc1 [acetaminophen]
- Inflamm. Score [7]: 1
- Liver Inflammation (rat, in vivo): no

SMILES: COc1cc2c(c3oc(=O)c4c(c13)CCC4=O)[C@@H]1C=CO[C@@H]1O2 [aflatoxin]
- Inflamm. Score (rat, in vivo): 4
- Liver Inflammation (rat, in vivo): yes
- Liver Necrosis (rat, in vivo): yes
- Necr. Score (rat, in vivo): 8

SMILES: C[C@@H]1[C@H](O)[C@@H](C)/C=C/C=C/C=C/C=C/C=C/C=C/C=C/[C@H](O[C@@H]2O[C@H](C)[C@@H](O)[C@H](N)[C@@H]2O)C[C@@H]2O[C@](O)(C[C@@H](O)C[C@@H](O)[C@H](O)CC[C@@H](O)C[C@@H](O)CC(=O)O[C@H]1C)C[C@H](O)[C@H]2C(=O)O [amphotericin B]
- Liver Inflammation (5 mg/kg i.p., 72 h): no
- Liver Necrosis (5 mg/kg i.p., 72 h): no
- Inflamm. Score [8]: 1
- Necr. Score [8]: 1
- Liver Inflammation (20 mg/kg i.p., 72 h): no
- Liver Necrosis (20 mg/kg i.p., 72 h): no
- Inflamm. Score [1]: 1
- Necr. Score [1]: 1

SMILES: Cn1cnc([N+](=O)[O-])c1Sc1ncnc2nc[nH]c12 [azathioprine]
- Inflamm. Score [7]: 1
- Necr. Score [7]: 1
- Liver Inflammation (rat, in vivo): no
- Liver Necrosis (rat, in vivo): no

SMILES: c1ccccc1 [benzene]
- Inflamm. Score [9]: 1
- Necr. Score [9]: 1
- Liver Inflammation (rat, in vivo, ip): no
- Liver Necrosis (rat, in vivo, ip): no

SMILES: c1ccc2c(c1)cc1ccc3cccc4ccc2c1c34 [benzo[a]pyrene]
- Liver Inflammation (30 mg/kg i.p., 72 h): no
- Liver Necrosis (30 mg/kg i.p., 72 h): no
- Inflamm. Score [10]: 1
- Necr. Score [10]: 1

SMILES: Brc1ccccc1 [bromobenzene]
- Liver Inflammation (0.2 ml/kg i.p., 72 h): yes
- Liver Necrosis (0.2 ml/kg i.p., 72 h): yes
- Inflamm. Score [11]: 2
- Necr. Score [11]: 2
- Liver Inflammation (0.8 ml/kg i.p., 72 h): yes
- Liver Necrosis (0.8 ml/kg i.p., 72 h): yes
- Inflamm. Score [12]: 3
- Necr. Score [12]: 4

SMILES: CS(=O)(=O)OCCCCOS(C)(=O)=O [busulfan]
- Liver Inflammation (14 mg/kg i.p., 72 h): no
- Liver Necrosis (14 mg/kg i.p., 72 h): no
- Inflamm. Score [13]: 1
- Necr. Score [13]: 1

SMILES: [Cl][Cd][Cl] [cadmium chloride]
- Liver Inflammation (1 mg/kg i.p., 72 h): no
- Liver Necrosis (1 mg/kg i.p., 72 h): no
- Inflamm. Score [14]: 1
- Necr. Score [14]: 1
- Liver Inflammation (2 mg/kg i.p., 72 h): no
- Liver Necrosis (2 mg/kg i.p., 72 h): no
- Inflamm. Score [15]: 1
- Necr. Score [15]: 1
- Liver Inflammation (4 mg/kg i.p., 72 h): yes
- Liver Necrosis (4 mg/kg i.p., 72 h): yes
- Inflamm. Score [16]: 2
- Necr. Score [16]: 3

SMILES: ClC(Cl)(Cl)Cl [carbon tetrachloride]
- Liver Inflammation (0.25 ml/kg i.p., 72 h): no
- Liver Necrosis (0.25 ml/kg i.p., 72 h): yes
- Inflamm. Score [17]: 1
- Necr. Score [17]: 3
- Liver Inflammation (1 ml/kg i.p., 72 h): yes
- Liver Necrosis (1 ml/kg i.p., 72 h): yes
- Inflamm. Score [18]: 3
- Necr. Score [18]: 6
- liver necrosis or necrosis with inflammation (high dose): produced liver necrosis or necrosis with inflammation
- liver necrosis or necrosis with inflammation (low dose): not at the low dose

SMILES: O=NN(CCCl)C(=O)NCCCl [carmustine]
- Liver Inflammation (16 mg/kg i.p., 72 h): no
- Liver Necrosis (16 mg/kg i.p., 72 h): no
- Inflamm. Score [19]: 1
- Necr. Score [19]: 1

SMILES: ClC(Cl)Cl [chloroform]
- Inflamm. Score [9]: 1
- Necr. Score [9]: 1
- Liver Inflammation (rat, in vivo, ip): no
- Liver Necrosis (rat, in vivo, ip): no

SMILES: CN(C)CCCN1c2ccccc2Sc2ccc(Cl)cc21 [chlorpromazine]
- Liver Inflammation (8 mg/kg i.p., 72 h): no
- Liver Necrosis (8 mg/kg i.p., 72 h): no
- Inflamm. Score [20]: 1
- Necr. Score [20]: 1
- Liver Inflammation (30 mg/kg i.p., 72 h): no
- Liver Necrosis (30 mg/kg i.p., 72 h): no
- Inflamm. Score [10]: 1
- Necr. Score [10]: 1

SMILES: N.N.[Cl][Pt][Cl] [cisplatin]
- Liver Inflammation (2.5 mg/kg i.p., 72 h): no
- Liver Necrosis (2.5 mg/kg i.p., 72 h): no
- Inflamm. Score [21]: 1
- Necr. Score [21]: 1
- Liver Inflammation (10 mg/kg i.p., 72 h): no
- Liver Necrosis (10 mg/kg i.p., 72 h): no
- Inflamm. Score [22]: 1
- Necr. Score [22]: 1

SMILES: CCOC(=O)C(C)(C)Oc1ccc(Cl)cc1 [clofibrate]
- Liver Inflammation (75 mg/kg i.p., 72 h): no
- Liver Necrosis (75 mg/kg i.p., 72 h): no
- Inflamm. Score [2]: 1
- Necr. Score [2]: 1
- Liver Inflammation (250 mg/kg i.p., 72 h): no
- Liver Necrosis (250 mg/kg i.p., 72 h): no
- Inflamm. Score [23]: 1
- Necr. Score [23]: 1

SMILES: CN1CCN(C2=Nc3cc(Cl)ccc3Nc3ccccc32)CC1 [clozapine]
- Inflamm. Score [7]: 1
- Necr. Score [7]: 1
- Liver Inflammation (rat, in vivo): no
- Liver Necrosis (rat, in vivo): no

SMILES: C[C@@H]1C[C@@H]([C@H](O)CC2CC(=O)NC(=O)C2)C(=O)[C@@H](C)C1 [cycloheximide]
- Liver Inflammation (0.5 mg/kg i.p., 72 h): no
- Liver Necrosis (0.5 mg/kg i.p., 72 h): no
- Inflamm. Score [24]: 1
- Necr. Score [24]: 1
- Liver Inflammation (2 mg/kg i.p., 72 h): no
- Liver Necrosis (2 mg/kg i.p., 72 h): no
- Inflamm. Score [15]: 1
- Necr. Score [15]: 1

SMILES: O=P1(N(CCCl)CCCl)NCCCO1 (centres unmarked) [cyclophosphamide]
- Inflamm. Score [7]: 1
- Necr. Score [7]: 1
- Liver Inflammation (rat, in vivo): no
- Liver Necrosis (rat, in vivo): no

SMILES: C[C@@H]1C[C@H]2[C@@H]3CCC4=CC(=O)C=C[C@]4(C)[C@@]3(F)[C@@H](O)C[C@]2(C)[C@@]1(O)C(=O)CO [dexamethasone]
- Inflamm. Score [7]: 1
- Necr. Score [7]: 1
- Liver Inflammation (rat, in vivo): no
- Liver Necrosis (rat, in vivo): no

SMILES: O=C(O)c1cc(-c2ccc(F)cc2F)ccc1O [diflunisal]
- Inflamm. Score [7]: 1
- Necr. Score [7]: 1
- Liver Inflammation (rat, in vivo): no
- Liver Necrosis (rat, in vivo): no

SMILES: CN(C)N=O [dimethylnitrosamine]
- Liver Inflammation (20 mg/kg i.p., 72 h): yes
- Liver Necrosis (20 mg/kg i.p., 72 h): yes
- Inflamm. Score [1]: 4
- Necr. Score [1]: 9

SMILES: COc1cccc2c1C(=O)c1c(O)c3c(c(O)c1C2=O)C[C@@](O)(C(=O)CO)C[C@@H]3O[C@H]1C[C@H](N)[C@H](O)[C@H](C)O1 [doxorubicin]
- Liver Inflammation (12 mg/kg i.p., 72 h): no
- Liver Necrosis (12 mg/kg i.p., 72 h): no
- Inflamm. Score [25]: 1
- Necr. Score [25]: 1
